Assay results as given in US20100172865A1, “METHODS OF ENHANCING HAIR GROWTH” (priority 2010, published 2010).
Read-outs that look alike come from different tables or passages of the source.

How the values were obtained:
hair loss = conditions: clinical studies, taken by mouth; cited from earlier work
scalp hair growth = assay: Local application of insulin to the scalp, alone or before other agents, hair growth; assay type: in vivo, human
Excerpt: Wash scalp with mild shampoo. Avoid using hair conditioners which may coat the bald skin resulting in prevention of the effective absorption of insulin. This is followed by application of oxidant. In our invention, we can use any one of the above described antioxidants, but in this instance we are discussing povidine iodine. […] Allow it to dry, and follow it by application of insulin by a spray or swab repeatedly 2-3 times as it dries.
Apply the Wash dressing on the wound if need be.
Step 4: Apply selected hair growth therapeutic agent, which includes prostaglandin and its derivatives which are already in the market and FDA approved.
We recommend the use of tocotrienols after insulin application so that this therapeutic agent can easily permeate the hair follicle and promote the hair growth.
Apply selected hair growth therapeutic agent using PGF 2α, and analogues.

[1] = tested on: cultured human hair follicles; conditions: cited from earlier work; for preventing hair follicles from entering into a catagen-like state, compared with insulin / rates of hair follicle growth compared with 10 micrograms/ml insulin: IGF-I 10 ng/ml, IGF-II 100 ng/ml; for effect on hair follicle growth: in the presence of 10 micrograms/ml insulin
[2] = cited from earlier work
[3] = tested on: hair loss due to chemotherapy; assay: Insulin spray on the scalp during chemotherapy; assay type: in vivo, human; conditions: 3-5 units of insulin diluted in normal saline or ringers lactate, cancer patients
Experimental: It is this experience that leads us to this invention. […] We also experimented with application of cold pack to the scalp 15 minutes after insulin spray, which caused the constriction of BV and reduced the amount of chemotherapy agent reaching the scalp hair which causes havoc on the hair root cells. These three simple methods reduced the profound loss of scalp hair to chemotherapy toxic effects in cancer patients during chemotherapy treatment. Insulin applied directly to the scalp had preventive effect on hair loss due to chemotherapy.

[4] = Excerpt: If one develops hypoglycemic symptoms due to any number of reasons, drink a sugar drink, eat a candy, or fruit cocktail.
wound healing = assay: Local insulin on ulcers, tooth extraction wounds and gums; assay type: in vivo, human
Excerpt: We have used insulin for more than a decade to enhance the effectiveness of locally injected therapeutic agents specially cancers with chemotherapeutic agents with remarkable results. Our research data also supports that the insulin spray on indolent ulcers anywhere in the body, including the oral (gums) and nasal cavity.

[5] = tested on: MCF-7 human breast cancer cells; conditions: MCF-7 cells, insulin plus methotrexate; cited from earlier work
[6] = in the absence of insulin, 0.01-100 ng/ml

CC(C)(C)NC(=O)[C@H]1CC[C@H]2[C@@H]3CC[C@H]4NC(=O)C=C[C@]4(C)[C@H]3CC[C@]12C [Finasteride]
share of men in whom hair loss stopped (hair loss): 83%

COc1cc(/C=C/C(=O)CC(=O)/C=C/c2ccc(O)c(OC)c2)ccc1O [curcumin]
use as antioxidant for hair growth after application of insulin (scalp hair growth; applied after insulin): used effectively

IGF-I: Insulin-like growth factor I
preventing hair follicles from entering into a catagen-like state, compared with insulin [1]: more potent than insulin | rates of hair follicle growth compared with 10 micrograms/ml insulin [1]: identical | stimulation of hair follicle growth [1, 6]: stimulated hair follicle growth in a dose-dependent manner | concentration stimulating maximum rates of hair follicle growth ([1]; in the absence of insulin): 10 ng/mL | effect on hair follicle growth [1]: no significant effect

IGF-II: Insulin-like growth factor II
preventing hair follicles from entering into a catagen-like state, compared with insulin [1]: more potent than insulin | rates of hair follicle growth compared with 10 micrograms/ml insulin [1]: unable to stimulate hair follicle growth to the same extent as insulin | stimulation of hair follicle growth [1, 6]: stimulated hair follicle growth in a dose-dependent manner | concentration stimulating maximum rates of hair follicle growth ([1]; in the absence of insulin): 100 ng/mL | effect on hair follicle growth [1]: no significant effect

Regular (R) humulin or novolin: Short-acting insulin
Duration of action ([2]; in vivo): 5 to 8 h | Onset of action ([2]; in vivo): 30 to 60 min | Peak effect ([2]; short-acting insulin): 2 to 5 h

growth hormone: growth hormone (somatotrophin)
influence on hair follicle and hair growth ([1]; growth hormone alone): no direct influence

insulin: hormone secreted by beta cells in the islets of Langerhans in the pancreas
hair loss during chemotherapy [3]: reduced the hair loss dramatically | hypoglycemia ([4]; after application of insulin to the scalp): none of our cases developed hypoglycemia | side effect after application ([4]; insulin preparations on the scalp): itching and redness | darkening of the skin ([4]; simple insulin applied to enhance hair growth): did not result in any appreciable darkening of the skin | hair follicle transplant healing and growth (scalp hair growth; insulin applied with hair follicle transplant, no second agent): rapid wound healing along with uptake and growth of hair follicle transplant | hair growth (scalp hair growth; insulin on its own): enhances the hair growth | gum diseases (periodontitis) (wound healing; insulin and antibiotics such as doxycycline locally on the gums): eliminated gum diseases | healing after teeth extraction (wound healing; insulin soaked cotton swabs, 1-3-5 units in normal saline): rapid healing with reduced pain | wound healing (wound healing; insulin spray on indolent ulcers): accelerated wound healing | concentration giving maximum rates of hair follicle growth ([1]; follicles maintained in medium containing insulin): 10 micrograms/ml | stimulation of hair follicle growth ([1]; over the range of 0.01 to 100 micrograms/ml): stimulated hair follicle growth in a dose-dependent manner | increase of the cytotoxic effect of methotrexate [5]: up to 10,000 fold
